Calls of active or inactive are those of the source. The calls are words filed in the database; no cut-off is given here.
Key:
[1] = tested on: Rattus norvegicus; test: In vivo antidiabetic activity in streptozotocin-induced diabetic Wistar Rattus norvegicus (rat) assessed as reduction in serum glucose level at 25 mg/kg, po for 7 days measured at 30 to 120 min post-glucose challenge by oral glucose tolerance test; assay type: functional, organism-based; design: dose 25 mg/kg
[2] = tested on: Rattus norvegicus; test: In vivo antidiabetic activity in streptozotocin-induced diabetic Wistar Rattus norvegicus (rat) assessed as reduction in serum glucose level at 25 mg/kg, po measured after 2 to 4 hr by glucose oxidase method; assay type: functional, organism-based; design: dose 25 mg/kg
[3] = tested on: Rattus norvegicus; test: Increase in sucrose tolerance in fasted normoglycemic Wistar Rattus norvegicus (rat) assessed as reduction in serum glucose level at 25 mg/kg, po measured at 30-120 min post-sucrose challenge by oral sucrose tolerance test; assay type: functional, organism-based; design: dose 25 mg/kg
[4] = tested on: Rattus norvegicus; test: Increase in glucose tolerance in fasted normoglycemic Wistar Rattus norvegicus (rat) assessed as suppression of blood glucose AUC at 25 mg/kg, po measured at 30-120 min post-glucose challenge by oral glucose tolerance test; assay type: functional, organism-based; design: dose 25 mg/kg
[5] = tested on: Rattus norvegicus; test: In vivo antidiabetic activity in streptozotocin-induced diabetic Wistar Rattus norvegicus (rat) assessed as serum HDL-cholesterol level at 25 mg/kg, po for 7 days by spectrophotometric analysis (reference value: 17.52 +/-2.1 mg/dl); assay type: functional
[6] = tested on: Rattus norvegicus; test: In vivo antidiabetic activity in streptozotocin-induced diabetic Wistar Rattus norvegicus (rat) assessed as serum total cholesterol level at 25 mg/kg, po for 7 days by spectrophotometric analysis (reference value: 126.62 +/-4.7 mg/dl); assay type: functional
[7] = tested on: Rattus norvegicus; test: In vivo antidiabetic activity in streptozotocin-induced diabetic Wistar Rattus norvegicus (rat) assessed as serum triglyceride level at 25 mg/kg, po for 7 days by spectrophotometric analysis (reference value: 128.77 +/-6.3 mg/dl); assay type: functional
[8] = tested on: Rattus norvegicus; test: In vivo antidiabetic activity in streptozotocin-induced diabetic Wistar Rattus norvegicus (rat) assessed as serum LDL-cholesterol level at 25 mg/kg, po for 7 days by spectrophotometric analysis (reference value: 80.75 +/-3.4 mg/dl); assay type: functional
[9] = tested on: Rattus norvegicus; test: In vivo antidiabetic activity in streptozotocin-induced diabetic Wistar Rattus norvegicus (rat) assessed as serum VLDL-cholesterol level at 25 mg/kg, po for 7 days by spectrophotometric analysis (reference value: 28.12 +/-1.5 mg/dl); assay type: functional
[10] = tested on: Rattus norvegicus; test: Increase in sucrose tolerance in fasted normoglycemic Wistar Rattus norvegicus (rat) assessed as reduction in serum glucose level at 7 mg/kg, po measured at 30-120 min post-sucrose challenge by oral sucrose tolerance test; assay type: functional, organism-based; design: dose 7 mg/kg
[11] = tested on: Rattus norvegicus; test: In vivo antidiabetic activity in streptozotocin-induced diabetic Wistar Rattus norvegicus (rat) assessed as reduction in serum glucose level at 10 mg/kg, po measured after 4 hr by glucose oxidase method; assay type: functional, organism-based; design: dose 10 mg/kg
[12] = tested on: Rattus norvegicus; test: Increase in glucose tolerance in fasted normoglycemic Wistar Rattus norvegicus (rat) assessed as suppression of blood glucose AUC at 10 mg/kg, po measured at 30-120 min post-glucose challenge by oral glucose tolerance test; assay type: functional, organism-based; design: dose 10 mg/kg
[13] = tested on: Rattus norvegicus; test: In vivo antidiabetic activity in streptozotocin-induced diabetic Wistar Rattus norvegicus (rat) assessed as reduction in serum glucose level at 0.5 mg/kg, po for 7 days measured at 30 to 120 min post-glucose challenge by oral glucose tolerance test; assay type: functional, organism-based; design: dose 0.5 mg/kg
[14] = tested on: Rattus norvegicus; test: In vivo antidiabetic activity in streptozotocin-induced diabetic Wistar Rattus norvegicus (rat) assessed as serum total cholesterol level at 0.5 mg/kg, po for 7 days by spectrophotometric analysis (reference value: 126.62 +/-4.7 mg/dl); assay type: functional
[15] = tested on: Rattus norvegicus; test: In vivo antidiabetic activity in streptozotocin-induced diabetic Wistar Rattus norvegicus (rat) assessed as serum triglyceride level at 0.5 mg/kg, po for 7 days by spectrophotometric analysis (reference value: 128.77 +/-6.3 mg/dl); assay type: functional
[16] = tested on: Rattus norvegicus; test: In vivo antidiabetic activity in streptozotocin-induced diabetic Wistar Rattus norvegicus (rat) assessed as serum LDL-cholesterol level at 0.5 mg/kg, po for 7 days by spectrophotometric analysis (reference value: 80.75 +/-3.4 mg/dl); assay type: functional
[17] = tested on: Rattus norvegicus; test: In vivo antidiabetic activity in streptozotocin-induced diabetic Wistar Rattus norvegicus (rat) assessed as serum VLDL-cholesterol level at 0.5 mg/kg, po for 7 days by spectrophotometric analysis (reference value: 28.12 +/-1.5 mg/dl); assay type: functional
[18] = tested on: Rattus norvegicus; test: In vivo antidiabetic activity in streptozotocin-induced diabetic Wistar Rattus norvegicus (rat) assessed as serum HDL-cholesterol level at 0.5 mg/kg, po for 7 days by spectrophotometric analysis (reference value: 17.52 +/-2.1 mg/dl); assay type: functional

For `COc1cc(/C=C2\CC/C(=C\c3ccc(O)c(OC)c3)C2=O)ccc1O`, the inhibition [1] was “Active”, the inhibition [2] was “Active” and the Activity [3] was “Active”. The Activity [4] was “Active”, the Activity [5] was 26.03 mg/dL and the Activity [6] was 80.41 mg/dL. The Activity [7] was 81.9 mg/dL, the Activity [8] was 25.4 mg/dL and the Activity [9] was 20.98 mg/dL.
With `C[C@H]1O[C@H](O[C@H]2[C@H](O)[C@@H](O)[C@@H](O[C@H]3[C@H](O)[C@@H](O)C(O)O[C@@H]3CO)O[C@@H]2CO)[C@H](O)[C@@H](O)[C@@H]1N[C@H]1C=C(CO)[C@@H](O)[C@H](O)[C@H]1O` (stereo partly drawn) the Activity [10] was “Active”.
With `COc1ccc(Cl)cc1C(=O)NCCc1ccc(S(=O)(=O)NC(=O)NC2CCCCC2)cc1` [GLYBURIDE] the inhibition [11] was “Active”, the Activity [12] was “Active” and the inhibition [13] was “Active”. For the same compound, the Activity [14] was 81.9 mg/dL, the Activity [15] was 87.4 mg/dL and the Activity [16] was 39.5 mg/dL. For the same compound, the Activity [17] was 19.4 mg/dL and the Activity [18] was 27.3 mg/dL.

— ChEMBL document CHEMBL3046039, “In vivo antidiabetic activity and in silico studies on adenosine monophosphate-activated protein kinase (AMPK) of (2E,5E)-2,5-bis(4-hydroxy-3-methoxybenzylidene) cyclopentanone” (2013)
